Measured values: patent publication US7786137B2, “Bicyclic derivatives as modulators of ion channels” (Vertex Pharmaceuticals Incorporated, priority 2005, dated 2010)
Read-outs that look alike come from different tables or passages of the source.

Assays:
[1] = neuropathic pain, modest efficacy; cited from earlier work
[2] = molecular target: NaV1.8 (Homo sapiens, UniProt Q9Y5Y9); settings: read-out: TTX IC50; cited from earlier work
[3] = molecular target: NaV1.1 (Homo sapiens, UniProt P35498); settings: read-out: TTX IC50; cited from earlier work
[4] = molecular target: T1, NaV1.3 (Homo sapiens, UniProt Q9NY46); settings: read-out: TTX IC50; cited from earlier work
Target sequence in this assay (Q9NY46 whole entry, looked up): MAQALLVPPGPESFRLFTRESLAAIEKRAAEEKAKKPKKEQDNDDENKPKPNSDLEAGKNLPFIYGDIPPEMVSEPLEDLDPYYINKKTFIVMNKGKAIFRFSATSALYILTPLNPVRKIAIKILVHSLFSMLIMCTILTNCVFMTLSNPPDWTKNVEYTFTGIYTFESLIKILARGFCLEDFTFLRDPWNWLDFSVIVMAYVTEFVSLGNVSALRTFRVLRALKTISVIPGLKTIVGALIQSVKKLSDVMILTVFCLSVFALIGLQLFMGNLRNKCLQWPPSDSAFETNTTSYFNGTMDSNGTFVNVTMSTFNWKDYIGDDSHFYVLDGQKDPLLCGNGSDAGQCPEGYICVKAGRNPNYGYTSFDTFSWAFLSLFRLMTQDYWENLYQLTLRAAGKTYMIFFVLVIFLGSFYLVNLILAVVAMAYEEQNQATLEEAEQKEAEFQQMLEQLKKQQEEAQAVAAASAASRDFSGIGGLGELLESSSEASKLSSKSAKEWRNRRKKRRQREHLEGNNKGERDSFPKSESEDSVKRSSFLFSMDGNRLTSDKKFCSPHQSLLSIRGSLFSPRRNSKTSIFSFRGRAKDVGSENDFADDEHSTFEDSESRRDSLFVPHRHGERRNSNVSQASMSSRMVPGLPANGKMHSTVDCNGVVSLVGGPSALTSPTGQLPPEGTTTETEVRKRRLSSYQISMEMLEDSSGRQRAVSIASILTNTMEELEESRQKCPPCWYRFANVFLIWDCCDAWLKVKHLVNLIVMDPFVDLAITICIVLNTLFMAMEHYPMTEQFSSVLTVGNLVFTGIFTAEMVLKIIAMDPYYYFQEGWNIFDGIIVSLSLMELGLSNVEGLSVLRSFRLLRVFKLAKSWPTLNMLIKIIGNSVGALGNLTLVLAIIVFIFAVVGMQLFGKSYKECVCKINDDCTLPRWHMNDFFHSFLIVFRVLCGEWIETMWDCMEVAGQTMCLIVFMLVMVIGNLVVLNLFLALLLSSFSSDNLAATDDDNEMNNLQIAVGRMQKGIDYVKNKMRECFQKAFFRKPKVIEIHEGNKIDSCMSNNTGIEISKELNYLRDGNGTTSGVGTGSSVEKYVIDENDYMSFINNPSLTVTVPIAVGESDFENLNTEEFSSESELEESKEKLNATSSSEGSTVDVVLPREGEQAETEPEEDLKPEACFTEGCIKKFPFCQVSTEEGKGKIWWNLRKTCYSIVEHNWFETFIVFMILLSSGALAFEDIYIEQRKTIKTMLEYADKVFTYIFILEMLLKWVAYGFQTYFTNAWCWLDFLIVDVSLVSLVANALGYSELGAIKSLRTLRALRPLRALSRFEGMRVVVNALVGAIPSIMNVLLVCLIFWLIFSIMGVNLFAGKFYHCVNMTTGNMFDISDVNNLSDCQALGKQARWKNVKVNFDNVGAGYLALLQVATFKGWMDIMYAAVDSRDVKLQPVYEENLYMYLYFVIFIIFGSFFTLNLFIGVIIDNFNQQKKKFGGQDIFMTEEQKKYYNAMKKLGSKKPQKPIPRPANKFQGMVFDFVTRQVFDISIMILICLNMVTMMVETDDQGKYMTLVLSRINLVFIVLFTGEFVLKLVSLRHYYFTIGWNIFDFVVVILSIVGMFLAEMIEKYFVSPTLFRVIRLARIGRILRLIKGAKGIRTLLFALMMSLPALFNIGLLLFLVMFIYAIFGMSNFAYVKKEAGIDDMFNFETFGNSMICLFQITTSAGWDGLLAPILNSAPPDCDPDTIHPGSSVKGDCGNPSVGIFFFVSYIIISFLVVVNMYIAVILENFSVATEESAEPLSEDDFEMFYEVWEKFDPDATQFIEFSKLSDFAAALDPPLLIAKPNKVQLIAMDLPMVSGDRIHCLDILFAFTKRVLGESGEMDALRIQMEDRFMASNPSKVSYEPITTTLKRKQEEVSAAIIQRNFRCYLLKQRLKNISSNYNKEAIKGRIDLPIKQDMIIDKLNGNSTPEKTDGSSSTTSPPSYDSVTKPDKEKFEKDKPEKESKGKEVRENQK

[5] = molecular target: NaV1.6 (Homo sapiens, UniProt Q9UQD0); settings: read-out: TTX IC50; cited from earlier work
[6] = molecular target: NaV1.2 (Homo sapiens, UniProt Q99250); settings: read-out: TTX IC50; cited from earlier work
[7] = molecular target: NaV1.9 (Homo sapiens, UniProt Q9UI33); settings: read-out: TTX IC50; cited from earlier work
[8] = molecular target: T1, NaV1.3; experiment: VIPR optical membrane potential assay, NaV1.3 inhibition; assay type: cell-based; set-up: expressed in transfected cells; host or cells: HEK293; settings: activity against NaV 1.3 channel
Target sequence in this assay (Q9NY46 whole entry): as the sequence (Q9NY46 whole entry, looked up) above

NaV1.8, sequence (Q9Y5Y9 whole entry, looked up): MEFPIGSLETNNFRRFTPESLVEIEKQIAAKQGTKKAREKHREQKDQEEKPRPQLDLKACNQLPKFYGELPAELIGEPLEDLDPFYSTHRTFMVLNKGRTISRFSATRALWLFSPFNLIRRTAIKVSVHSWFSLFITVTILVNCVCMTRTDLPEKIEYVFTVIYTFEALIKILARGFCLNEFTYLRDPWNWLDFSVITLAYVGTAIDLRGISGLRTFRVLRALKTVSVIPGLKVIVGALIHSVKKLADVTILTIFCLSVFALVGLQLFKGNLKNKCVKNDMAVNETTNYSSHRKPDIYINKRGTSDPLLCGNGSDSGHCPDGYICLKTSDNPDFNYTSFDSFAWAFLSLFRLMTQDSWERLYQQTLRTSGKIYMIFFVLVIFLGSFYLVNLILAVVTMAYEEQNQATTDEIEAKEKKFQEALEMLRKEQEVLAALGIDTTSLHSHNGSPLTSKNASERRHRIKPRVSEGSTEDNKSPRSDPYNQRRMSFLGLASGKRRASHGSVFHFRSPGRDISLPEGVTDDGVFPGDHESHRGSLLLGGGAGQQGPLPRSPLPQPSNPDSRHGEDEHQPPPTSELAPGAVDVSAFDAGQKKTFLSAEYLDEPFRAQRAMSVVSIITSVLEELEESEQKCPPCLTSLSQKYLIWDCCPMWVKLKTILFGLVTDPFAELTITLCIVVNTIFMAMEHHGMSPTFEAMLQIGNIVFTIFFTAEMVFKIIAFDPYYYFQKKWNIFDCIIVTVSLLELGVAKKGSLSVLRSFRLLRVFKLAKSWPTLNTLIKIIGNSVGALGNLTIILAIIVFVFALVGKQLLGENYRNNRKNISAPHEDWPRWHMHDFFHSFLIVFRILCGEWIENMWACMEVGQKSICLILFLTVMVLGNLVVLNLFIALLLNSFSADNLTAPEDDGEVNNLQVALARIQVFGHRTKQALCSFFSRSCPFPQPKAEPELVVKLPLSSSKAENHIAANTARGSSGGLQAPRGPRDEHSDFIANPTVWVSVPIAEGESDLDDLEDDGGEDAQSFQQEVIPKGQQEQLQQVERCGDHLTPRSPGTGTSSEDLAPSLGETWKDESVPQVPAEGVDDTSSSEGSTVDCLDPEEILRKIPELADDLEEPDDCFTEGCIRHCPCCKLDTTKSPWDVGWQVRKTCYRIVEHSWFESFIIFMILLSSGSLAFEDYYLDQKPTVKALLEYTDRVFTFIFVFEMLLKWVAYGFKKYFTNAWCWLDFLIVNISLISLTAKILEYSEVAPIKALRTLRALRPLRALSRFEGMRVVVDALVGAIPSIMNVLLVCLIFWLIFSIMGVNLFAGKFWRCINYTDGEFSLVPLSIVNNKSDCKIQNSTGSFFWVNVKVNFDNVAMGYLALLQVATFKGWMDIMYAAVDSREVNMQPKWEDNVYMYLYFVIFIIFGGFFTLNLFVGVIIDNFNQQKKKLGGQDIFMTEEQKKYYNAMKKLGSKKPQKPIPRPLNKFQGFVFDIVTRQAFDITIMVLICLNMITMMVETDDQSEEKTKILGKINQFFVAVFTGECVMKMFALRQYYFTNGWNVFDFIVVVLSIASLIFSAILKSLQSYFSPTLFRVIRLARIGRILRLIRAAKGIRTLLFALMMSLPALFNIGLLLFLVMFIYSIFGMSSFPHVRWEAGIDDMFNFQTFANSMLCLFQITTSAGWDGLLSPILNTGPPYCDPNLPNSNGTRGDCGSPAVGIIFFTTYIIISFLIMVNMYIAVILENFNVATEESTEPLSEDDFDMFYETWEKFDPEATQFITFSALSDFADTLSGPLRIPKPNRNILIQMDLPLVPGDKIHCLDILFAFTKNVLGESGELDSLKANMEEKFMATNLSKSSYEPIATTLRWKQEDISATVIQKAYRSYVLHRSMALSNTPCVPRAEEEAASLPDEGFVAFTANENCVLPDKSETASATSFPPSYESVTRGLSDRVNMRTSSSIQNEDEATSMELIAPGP

| SMILES | IC50 [8] | other results |
| --- | --- | --- |
| NCC1(CC(=O)O)CCCCC1 [Gabapentin] | – | patients in whom it works [1]: 60% |
| NC1=N[C@H](O)[C@H]2[C@H]3O[C@]4(O)O[C@@H]([C@@H](O)[C@@]2(N1)[C@@H]4O)[C@]3(O)CO [TTX, tetrodotoxin] | – | IC50 [2]: > 50 µM; IC50 [3]: 10 nM; IC50 [4]: 15 nM; IC50 [5]: 6 nM; IC50 [6]: 10 nM; IC50 [7]: 1000 nM |
| O=C(c1ccccc1Cl)N1CCc2cc(S(=O)(=O)Nc3nccs3)ccc21 [Compound 40] | > 5000 nM | – |
| O=C(CN1CCc2ccc(F)cc2C1)N1CCc2cc(S(=O)(=O)Nc3nccs3)ccc21 [Compound 137] | < 2000 nM | – |
| O=C(c1cc(F)ccc1F)N1CCCc2cc(S(=O)(=O)Nc3nccs3)ccc21 [Compound 70] | > 5000 nM | – |
| COc1cccc(CC(=O)N2CCc3cc(S(=O)(=O)Nc4ncns4)ccc32)c1 [Compound 31] | < 2000 nM | – |
| O=C(c1cccc(Cl)c1)n1ccc2cc(S(=O)(=O)Nc3nccs3)ccc21 [Compound 86] | < 2000 nM | – |
| O=C(COc1ccnc2c(C(F)(F)F)cccc12)N1CCc2ccc(S(=O)(=O)Nc3nccs3)cc2C1 [Compound 140] | < 2000 nM | – |
| O=C(COc1ccccc1)N1CCCc2cc(S(=O)(=O)Nc3ncns3)ccc21 [Compound 72] | > 5000 nM | – |
| O=S(=O)(Nc1nccs1)c1ccc2c(c1)CCN2CCNc1nc2ccccc2[nH]1 [Compound 66] | > 5000 nM | – |
| O=C(COc1ccc(OC(F)(F)F)cc1)N1CCc2cc(S(=O)(=O)Nc3ncns3)ccc21 [Compound 167] | < 2000 nM | – |
| O=C(COc1ccc(F)cc1)N1CCc2cc(S(=O)(=O)Nc3ncns3)ccc21 [Compound 42] | < 2000 nM | – |
| O=C(COc1ccccc1Cl)N1CCc2ccc(S(=O)(=O)Nc3nccs3)cc2C1 [Compound 149] | < 2000 nM | – |
| C[C@@H](C(=O)N1Cc2ccc(S(=O)(=O)Nc3ncns3)cc2C1)n1ccc2c(F)cccc21 [Compound 124] | < 2000 nM | – |
| COc1ccccc1CC(=O)N1CCc2cc(S(=O)(=O)Nc3nccs3)ccc21 [Compound 10] | 2000 to 5000 nM | – |
| Cc1cccc(CC(=O)N2CCc3cc(S(=O)(=O)Nc4nccs4)ccc32)c1 [Compound 43] | < 2000 nM | – |
| O=C(COc1cccc(Cl)c1)N1CCc2cc(S(=O)(=O)Nc3nccs3)ccc21 [Compound 131] | < 2000 nM | – |
| COc1cc(C(=O)n2ccc3cc(S(=O)(=O)Nc4nccs4)ccc32)ccc1C [Compound 55] | 2000 to 5000 nM | – |
| O=C(CCn1ccc2cc(Cl)ccc21)N1CCc2ccc(S(=O)(=O)Nc3nccs3)cc2C1 [Compound 121] | < 2000 nM | – |
| Cc1ccc(CNCC(=O)N2CCc3cc(S(=O)(=O)Nc4nccs4)ccc32)cc1 [Compound 41] | 2000 to 5000 nM | – |
| O=C(CN1CCC(F)(F)C1)N1CCCc2cc(S(=O)(=O)Nc3nccs3)ccc21 [Compound 169] | > 5000 nM | – |
| O=C(CNc1cc(F)ccc1F)N1CCc2cc(S(=O)(=O)Nc3nccs3)ccc21 [Compound 61] | < 2000 nM | – |

| SMILES | IC50 [8] | other results |
| --- | --- | --- |
| Cc1ccc(OCC(=O)N2CCc3cc(S(=O)(=O)Nc4nccs4)ccc32)cc1C [Compound 79] | < 2000 nM | – |
| O=C(COc1cccc(Cl)c1Cl)N1CCc2cc(S(=O)(=O)Nc3nccs3)ccc21 [Compound 67] | < 2000 nM | – |
| C[C@H](C(=O)N1Cc2ccc(S(=O)(=O)Nc3ccc(Cl)nn3)cc2C1)n1ccc2c(F)cccc21 [Compound 58] | > 5000 nM | – |
| Cc1ccc(OCC(=O)N2CCc3ccc(S(=O)(=O)Nc4nccs4)cc3C2)c(C)c1 [Compound 16] | < 2000 nM | – |
| O=C(CN1CCC(F)(F)CC1)N1CCCc2cc(S(=O)(=O)Nc3nccs3)ccc21 [Compound 175] | > 5000 nM | – |
| O=C(Cc1ccc(OC(F)(F)F)cc1)N1CCc2cc(S(=O)(=O)Nc3nccs3)ccc21 [Compound 51] | < 2000 nM | – |
| O=C(CNc1ccc(F)c(Cl)c1)N1CCc2cc(S(=O)(=O)Nc3nccs3)ccc21 [Compound 48] | 2000 to 5000 nM | – |
| Cc1cccc(OCC(=O)N2CCc3cc(S(=O)(=O)Nc4nccs4)ccc32)c1 [Compound 1] | < 2000 nM | – |
| COc1ccc(F)cc1C(=O)n1ccc2cc(S(=O)(=O)Nc3nccs3)ccc21 [Compound 110] | 2000 to 5000 nM | – |
| Cc1ccccc1CNCC(=O)N1CCc2cc(S(=O)(=O)Nc3nccs3)ccc21 [Compound 35] | 2000 to 5000 nM | – |
| O=C(c1ccc(F)cc1F)N1CCCc2cc(S(=O)(=O)Nc3nccs3)ccc21 [Compound 95] | > 5000 nM | – |
| C[C@H](C(=O)N1Cc2ccc(S(=O)(=O)Nc3ncns3)cc2C1)n1ccc2c(F)cccc21 [Compound 94] | < 2000 nM | – |
| O=C(COc1cccnc1)N1CCc2cc(S(=O)(=O)Nc3nccs3)ccc21 [Compound 129] | > 5000 nM | – |
| O=C(c1ccc(Cl)c(Cl)c1)n1ccc2cc(S(=O)(=O)Nc3nccs3)ccc21 [Compound 126] | 2000 to 5000 nM | – |
| O=C(COc1ccccc1)N1CCCc2cc(S(=O)(=O)Nc3nccs3)ccc21 [Compound 113] | 2000 to 5000 nM | – |
| Cc1ccccc1OCC(=O)N1CCc2cc(S(=O)(=O)Nc3nccs3)ccc21 [Compound 134] | < 2000 nM | – |
| Cc1ccc(OCC(=O)N2CCc3cc(S(=O)(=O)Nc4nccs4)ccc32)c(C)c1 [Compound 60] | < 2000 nM | – |
| O=C(c1ccc(F)cc1)N1CCc2ccc(S(=O)(=O)Nc3nccs3)cc2C1 [Compound 119] | > 5000 nM | – |
| CC(C(=O)N1Cc2ccc(S(=O)(=O)Nc3ncns3)cc2C1)N1CCCc2cc(Cl)ccc21 (stereo not shown) [Compound 57] | < 2000 nM | – |
| O=C(COc1ccc(Cl)cc1)N1CCc2cc(S(=O)(=O)Nc3nccs3)ccc21 [Compound 49] | < 2000 nM | – |
| O=C(COc1ccccc1)N1CCc2cc(S(=O)(=O)Nc3nccs3)ccc21 [Compound 112] | < 2000 nM | – |
| O=C(CCn1ccc2cc(Cl)ccc21)N1Cc2ccc(S(=O)(=O)Nc3ncns3)cc2C1 [Compound 127] | < 2000 nM | – |
